From patent publication US11971412B2, “Polypeptide-antibody complexes and uses thereof” (Mayo Foundation for Medical Education and Research, priority 2017, dated 2024)
Ends that are not written are not given here.

Experiments:
[1] = test system: CD20+ Daudi lymphoma cells; assay: Flow cytometry staining of CD20+ Daudi lymphoma cells; format: cell-based; settings: CD20+ Daudi lymphoma cells incubated 30 minutes at 4° C., washed with FACS buffer
Procedure: FIG. 1 is a series of scatter plots from flow cytometry studies using a polypeptide having the sequence […] (SEQ ID NO:3) that was labeled with QDs that emit at a wavelength of 565 nm, and complexed with a therapeutic antibody (rituximab). […] CD20+ Daudi lymphoma cells were incubated with isotype control, FITC-rituximab, peptide-QD only, peptide-QD+rituximab (10:1), and peptide-QD+rituximab (25:1) for 30 minutes at 4° C. After washing with FAGS buffer (PBS+0.5% BSA and 0.5% Na azide), the stained cells were analyzed by flow cytometry for recognition of CD20. The Daudi cells were 95% CD20+ (top left), 11.62% positive when stained with peptide-QD only (bottom left), and 57.02% and 61.31% positive with peptide-QD-rituximab at 10:1 and 25:1 (bottom center and bottom right, respectively).
The fluorescently labeled peptide was then bound to rituximab, trastuzumab, or atezolizumab and tested for binding to tumor cells expressing the pertinent tumor target. […] CD20+ Daudi lymphoma cells were incubated with isotype control, FITC-rituximab, polypeptide-QD only, polypeptide-QD-rituximab (10:1) complex, and polypeptide-QD-rituximab (25:1) complex for 30 minutes at 4° C. After washing with FACS buffer (PBS+0.5% BSA and 0.5% Na azide), the stained cells were analyzed by flow cytometry. […]

[2] = test system: SK-Br-3 (HER2/neu-positive) cells; assay: Flow cytometry staining of HER2/neu-positive SK-Br-3 cells; format: cell-based
Procedure: FIG. 4 is a series of scatter plots from flow cytometry studies using SK-Br-3 (HER2/neu-positive) cells stained with a SEQ ID NO:3-QD-trastuzumab complex. The SK-Br-3 cells were incubated with isotype control antibody (top left), PE-anti-HER2 (top middle), SEQ ID NO:3-QD only (top right), and SEQ ID NO:3-QD-trastuzumab complex (bottom left). The cells were 84.7% positive for HER2/neu, 15.9% positive with SEQ ID NO:3-QD only and 68.9% positive with SEQ ID NO:3-QD-trastuzumab complex. A histogram representation of the data is included at the bottom right of the figure.
Additional experiments utilized HER2/neu-positive SK-Br-3 cells stained with polypeptide-QD bound to trastuzumab. The SK-Br-3 cells were incubated with isotype (FIG. 4, top left), PE-anti-HER2 (FIG. 4, top middle), polypeptide-QD only (FIG. 4, top right), and polypeptide-QD-trastuzumab complex (FIG. 4, bottom left). The cells were 84.7% positive for HER2/neu, 15.9% positive with polypeptide-QD only and 68.9% positive with the polypeptide-QD-trastuzumab complex. A histogram representation of the data is shown at the bottom right of […].

| Substance | Daudi cells positive by flow cytometry [1] [%] | SK-Br-3 cells positive by flow cytometry [2] [%] |
| --- | --- | --- |
| FITC-rituximab: FITC-labeled rituximab used as direct CD20 stain of Daudi cells [reference compound] | 95 | – |
| polypeptide-QD only: SEQ ID NO:3 polypeptide thiol-linked via SMCC crosslinker to PEG-coated Quantum Dots, without antibody (CGSGGGSVVLNQLCVLHEKTPVSDR; not fully specified (residue 1); also: Cys1 thiol linked via SMCC to PEG-coated quantum dot) | 11.62 | 15.9 |
